According to the supplement of paper PMC10307832:

How the values were obtained:
Experiment in all cases: relative viability (nuclei count vs DMSO), 5 days (fraction); higher = more cells survive
[1] = compound: COC1=CC=C(C=C1)CN2C=CC3=C2C=C(C=C3)C(=O)NO + CS(=O)(=O)N1CCN(Cc2cc3nc(-c4cccc5[nH]ncc45)nc(N4CCOCC4)c3s2)CC1 [Pictilisib] (partner 1 µM)
Method in brief: (§1)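 Cells from lung cancer lines were seeded into 1536-well plates and, one day later, dosed by pin tool. Treatments were either a single drug or a fixed dose of an anchor drug with five library-drug doses (not always all listed) in √10 steps. After 5 days, nuclei were stained in a one-step fixation (final 0.05% Triton X-100, 1% formaldehyde, 1 ug/ml Hoechst) and counted on 4× images, and relative viability is the treated-to-vehicle nuclei ratio, as the median of duplicate plates.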

[2] = compound: COC1=CC=C(C=C1)CN2C=CC3=C2C=C(C=C3)C(=O)NO + COc1cccc2cc(-c3nc([C@H]4CC[C@H](C(=O)O)CC4)n4ncnc(N)c34)[nH]c12 [OSI-027] (partner 0.5 µM)
Method in brief: as §1

[3] = compound: COC1=CC=C(C=C1)CN2C=CC3=C2C=C(C=C3)C(=O)NO + Cc1cc(Nc2cc(N3CCN(C)CC3)nc(Sc3ccc(NC(=O)C4CC4)cc3)n2)n[nH]1 [Tozasertib] (partner 0.1 µM)
Method in brief: as §1

[4] = compound: COC1=CC=C(C=C1)CN2C=CC3=C2C=C(C=C3)C(=O)NO + C[C@]1(O)C[C@@H](c2nc(-c3ccc4ccc(-c5ccccc5)nc4c3)c3c(N)nccn32)C1 [Linsitinib] (partner 1 µM)
Method in brief: as §1

Cell Line	relative viability ([1]; first compound 0.08 µM)	relative viability ([1]; first compound 0.253 µM)	relative viability ([1]; first compound 0.8 µM)	relative viability ([1]; first compound 2.53 µM)	relative viability ([1]; first compound 8 µM)	relative viability ([2]; first compound 0.08 µM)	relative viability ([2]; first compound 0.253 µM)	relative viability ([2]; first compound 0.8 µM)	relative viability ([2]; first compound 8 µM)	relative viability ([3]; first compound 0.08 µM)	relative viability ([3]; first compound 0.253 µM)	relative viability ([3]; first compound 0.8 µM)	relative viability ([3]; first compound 2.53 µM)	relative viability ([3]; first compound 8 µM)	relative viability ([4]; first compound 0.08 µM)	relative viability ([4]; first compound 0.253 µM)	relative viability ([4]; first compound 0.8 µM)	relative viability ([4]; first compound 2.53 µM)	relative viability ([4]; first compound 8 µM)	relative viability ([2]; first compound 2.53 µM)
201T	0.687	0.716	0.752	0.725	0.683	0.869	0.827	0.644	0.71	0.677	0.976	0.998	0.877	0.943	1.04	1.01	1.13	1.06	1.03	–
A549	0.446	0.585	0.504	0.502	0.472	–	–	–	–	–	–	–	–	–	–	0.678	0.595	0.697	0.558	–
A-427	–	0.743	0.787	0.643	0.606	–	0.44	0.497	0.367	–	0.234	0.212	0.202	0.185	–	1.08	1.11	1.16	1.1	0.492
ABC-1	–	0.761	0.78	0.724	0.662	–	0.57	0.484	0.393	–	0.221	0.183	0.162	0.209	–	0.924	0.789	0.732	0.885	0.488
BEN	0.504	0.589	0.582	0.544	0.499	0.27	0.296	0.288	0.291	0.442	0.472	0.437	0.495	0.445	0.87	0.875	0.904	0.869	0.907	0.318
CAL-12T	0.244	–	0.527	0.377	0.283	0.723	0.643	0.563	0.642	0.293	0.344	0.362	0.328	0.323	0.695	0.917	0.756	0.76	0.786	0.71
COR-L23	0.496	0.788	0.714	0.727	0.711	0.647	0.829	0.795	0.686	0.167	0.197	0.203	0.201	0.169	0.558	1.09	0.817	0.872	0.836	0.772
COR-L 105	–	0.348	0.462	0.363	0.306	0.524	0.738	0.753	0.445	0.351	0.355	0.328	0.416	0.319	–	0.945	0.763	0.983	0.765	0.626
Calu-6	0.426	0.946	0.981	0.969	0.826	–	–	–	–	–	–	–	–	–	–	0.961	0.949	0.906	0.902	–
ChaGo-K-1	–	0.655	0.801	0.706	0.462	–	0.623	0.675	0.378	–	0.249	0.211	0.214	0.234	–	–	–	–	–	0.504
EBC-1	0.351	0.514	0.401	0.424	0.338	–	–	–	–	–	–	–	–	–	–	0.883	0.941	0.907	0.768	–
EKVX	0.327	0.443	0.424	0.522	0.439	0.669	0.653	0.72	0.64	0.374	0.369	0.409	0.372	0.36	0.825	1.07	1.06	1.12	1.03	0.72
EMC-BAC-2	0.448	0.549	0.555	0.553	0.466	0.371	0.371	0.425	0.33	0.196	0.286	0.287	0.283	0.237	0.686	0.867	0.839	0.814	0.839	0.381
EPLC-272H	0.233	0.333	0.341	0.287	0.218	0.223	–	0.313	0.267	0.135	–	0.346	0.235	0.272	0.987	1.18	1.14	1.14	1.05	0.257
H3255	0.428	0.411	0.416	0.436	0.467	0.473	0.58	0.606	0.553	0.457	0.393	0.639	0.497	0.604	0.853	1.01	0.943	0.859	0.835	0.545
HARA	0.467	0.492	0.403	0.43	0.33	–	0.522	0.535	0.42	–	0.109	0.114	0.128	0.0964	0.126	1.01	1.01	1.07	0.962	0.553
HCC-15	0.522	0.743	0.866	0.833	0.741	0.625	0.715	0.672	0.529	0.208	0.515	0.391	0.327	0.318	0.802	0.877	0.887	0.968	0.915	0.742
HCC-44	0.547	0.746	0.616	0.568	0.547	0.465	0.453	0.498	0.454	0.803	0.909	0.946	0.863	0.792	0.568	0.69	0.681	0.705	0.637	0.554
HCC-78	–	0.192	0.199	0.213	0.216	0.4	0.344	0.341	0.366	0.34	0.329	0.397	0.395	0.38	–	0.542	0.537	0.491	0.453	0.355
HCC-366	0.139	0.165	0.137	0.136	0.15	0.486	1.03	0.978	0.772	0.0975	0.116	0.124	0.354	0.0739	–	0.98	0.636	0.673	0.696	0.896
HCC-827	0.934	0.921	1.07	1.15	0.927	0.766	0.712	0.81	0.761	0.405	0.427	0.442	0.416	0.415	0.994	0.94	0.942	0.981	0.883	0.791

Cell Line	relative viability ([1]; first compound 0.08 µM)	relative viability ([1]; first compound 0.253 µM)	relative viability ([1]; first compound 0.8 µM)	relative viability ([1]; first compound 2.53 µM)	relative viability ([1]; first compound 8 µM)	relative viability ([2]; first compound 0.08 µM)	relative viability ([2]; first compound 0.253 µM)	relative viability ([2]; first compound 0.8 µM)	relative viability ([2]; first compound 8 µM)	relative viability ([3]; first compound 0.08 µM)	relative viability ([3]; first compound 0.253 µM)	relative viability ([3]; first compound 0.8 µM)	relative viability ([3]; first compound 2.53 µM)	relative viability ([3]; first compound 8 µM)	relative viability ([4]; first compound 0.08 µM)	relative viability ([4]; first compound 0.253 µM)	relative viability ([4]; first compound 0.8 µM)	relative viability ([4]; first compound 2.53 µM)	relative viability ([4]; first compound 8 µM)	relative viability ([2]; first compound 2.53 µM)
HOP-62	0.249	0.885	0.988	0.908	0.396	0.729	0.888	0.909	0.758	0.304	0.353	0.392	0.33	0.349	0.681	1.06	1.01	0.924	1.04	0.871
IA-LM	0.296	0.388	0.373	0.371	0.23	–	–	–	–	–	–	–	–	–	0.613	0.587	0.492	0.698	0.663	–
LC-2-ad	0.437	0.597	0.547	0.439	0.427	0.793	0.853	0.826	0.671	0.384	0.46	0.485	0.411	0.382	0.783	0.851	0.873	0.999	0.804	0.979
LCLC-97TM1	–	0.283	0.205	0.227	0.123	0.346	0.531	0.546	0.374	0.16	0.219	0.193	0.196	0.209	–	0.212	0.225	0.206	0.156	0.342
LCLC-103H	0.526	0.621	0.586	0.648	0.532	0.441	0.529	0.534	0.397	0.445	0.523	0.489	0.534	0.433	1.03	1.13	0.991	1.07	1.02	0.388
LK-2	–	0.524	0.598	0.507	0.488	–	0.289	0.244	0.208	–	0.196	0.197	0.157	0.174	–	0.45	0.579	0.515	0.533	0.195
LOU-NH91	0.45	0.53	0.522	0.528	0.497	0.761	0.699	0.729	0.709	0.407	0.693	0.66	0.64	0.587	0.74	0.995	1.04	0.954	0.913	0.749
LU99A	–	0.338	0.355	0.295	0.283	–	0.326	0.295	0.258	–	0.254	0.298	0.277	0.298	–	0.581	0.533	0.552	0.569	0.259
LXF-289	0.309	0.779	0.754	0.799	0.723	–	0.823	0.896	0.716	–	0.231	0.164	0.195	0.182	0.456	0.951	0.998	0.986	0.959	0.908
NCI-H522	–	–	–	–	–	–	0.611	0.746	0.718	–	0.589	0.53	0.613	0.545	–	–	–	–	–	0.733
NCI-H1299	0.834	1.03	0.77	0.658	0.593	–	–	–	–	–	–	–	–	–	0.952	0.976	0.994	0.977	0.959	–
NCI-H1563	0.547	0.656	0.645	0.706	0.618	0.626	0.812	0.739	0.712	–	–	–	–	–	1.1	1.18	1.26	1.18	1.12	0.724
NCI-H1623	–	–	–	–	–	0.435	0.727	0.468	0.376	0.407	0.411	0.421	0.42	0.436	–	–	–	–	–	0.43
NCI-H1648	–	–	–	–	–	0.246	0.245	0.246	0.246	0.415	0.573	0.479	0.399	0.473	–	–	–	–	–	0.262
NCI-H1650	0.173	0.595	0.567	0.541	0.32	0.586	0.682	0.714	0.542	0.391	0.379	0.447	0.416	0.326	–	–	–	–	–	0.568
NCI-H1703	–	0.259	0.221	0.256	0.147	–	–	–	–	–	–	–	–	–	–	0.783	1.09	0.69	1.16	–
NCI-H1792	0.301	0.314	0.297	0.326	0.209	0.722	0.811	0.745	0.616	–	–	–	–	–	0.535	0.62	0.636	0.539	0.425	0.802
NCI-H2170	0.271	0.393	0.347	0.27	0.279	0.708	0.725	0.8	0.609	0.439	0.869	0.694	0.729	0.616	–	–	–	–	–	0.81
NCI-H2342	–	–	–	–	–	0.61	0.66	0.603	0.655	0.497	0.701	0.544	0.531	0.47	–	–	–	–	–	0.57
SW 900	–	–	–	–	–	0.559	0.533	0.63	0.447	0.558	0.647	0.574	0.612	0.489	–	–	–	–	–	0.622
